# Experimental data published in patent US9192560B2, “Stable composition comprising an anti-ageing compound and a solvent” (CHANEL PARFUMS BEAUTE, priority 2012, dated 2015).
# Like-named read-outs stand apart in the source and are kept apart here.
# Experiments:
# [1] = Study of olfactory stability of Base with odor absorber
# Protocol: A Base composition as follows was prepared. In this composition, octocrylene is used as diacetylresveratryl thioctate-stabilizing solvent.
# 0.6% of each candidate odor absorber was added to one of the base compositions above and the olfactory stability was tested at three temperatures (ambient temperature, 5° C. and 45° C.) and at the following times: • at the beginning (to), • 1 month (1M), • 2 months (2M) and • 3 months (3M).
# [2] = Stability of diacetylresveratryl thioctate in the formulation with odor absorber; format: physicochemical; conditions: 0.6% odor absorber in Base (0.10% diacetylresveratryl thioctate), two months
# Protocol: A diacetylresveratryl thioctate stability test was carried out for the odor absorbers retained in Example 3, according to the following protocol, for the purpose of confirming the compatibility between the solvent and the odor absorber.
# [3] = Resveratrol stabilization test in solvents (comparative example); format: physicochemical
# Protocol: The stabilization of resveratrol by dimethyl isosorbide, ethylhexyl methoxycrylene and octocrylene was evaluated according to the same protocol as Example 1-a, except that the solubility was evaluated on the same day as to (0D).
# [4] = Diacetylresveratryl thioctate stabilization test in candidate solvents (solubility at t0 and a day later); conditions: for Solubility 1 D/AT / Solubility t0/AT: diacetylresveratryl thioctate in the named solvent, ambient temperature; for Solubility 1 D/AT: a day later; for Solubility t0/AT: initial; for Stability: stabilization of diacetylresveratryl thioctate by the named solvent
# Protocol: The term “stabilization” is intended to mean an absence of crystallization of diacetylresveratryl thioctate after 10 days at 4° C. and six months at AT.
# The candidate solvents thus chosen are then subjected to the stabilization test. This test consists in comparing the initial solubility (t0) and the solubility a day later (1D) at ambient temperature (AT).
# [5] = listed as ethylhexyl methoxycrylene
molecule,measurement,setting,value
O=C1CC[C@@H](C(=O)[O-])N1.O=C1CC[C@@H](C(=O)[O-])N1.[Cu+2] [Copper L-pyrrolidone carboxylate salt],olfactory stability 1 M,"[1]; 0.6% odor absorber in Base, 1 month, identical at AT, 5° C. and 45° C.",Yes
same,olfactory stability 2 M 5° C.,"[1]; 0.6% odor absorber in Base, 2 months, 5° C.",Yes
same,olfactory stability 2 M 45° C.,"[1]; 0.6% odor absorber in Base, 2 months, 45° C.",Yes
same,olfactory stability 2 M AT,"[1]; 0.6% odor absorber in Base, 2 months, ambient temperature",Yes
same,olfactory stability 3 M,"[1]; 0.6% odor absorber in Base, 3 months, identical at AT, 5° C. and 45° C.",Yes
same,olfactory stability t0,"[1]; 0.6% odor absorber in Base, identical at AT, 5° C. and 45° C.",Yes
same,"olfactory stability, overall conclusion","[1]; odor absorber in combination with the Base, up to 3 months",the most appropriate
same,degree of diacetylresveratryl thioctate stabilization 5° C.,[2]; 5° C.,0.1
same,degree of diacetylresveratryl thioctate stabilization 45° C.,[2]; 45° C.,0.094
CO[C@H]1CO[C@H]2[C@@H]1OC[C@H]2OC [Dimethyl isosorbide],Solubility t0/AT,"[3]; resveratrol in the named solvent, initial, ambient temperature",Partially soluble
same,Solubility 0 D/AT,"[3]; resveratrol in the named solvent, same day, ambient temperature",Precipitate
same,Stability,[3]; stabilization of resveratrol by the named solvent,No
same,Solubility 1 D/AT,[4],Clear
same,Solubility t0/AT,[4],Partially soluble
same,Solubility t0/AT,[4]; listed as dimethyl isosorbide,partially soluble
same,Stability,[4],Yes
CCCCC(CC)COC(=O)C(C#N)=C(c1ccccc1)c1ccc(OC)cc1 (stereo not shown) [Ethylhexyl methoxycrylene],Solubility 0 D/AT,[3],Precipitate
same,Solubility t0/AT,[3],Soluble fraction
same,Stability,[3],No
same,Solubility 1 D/AT,[4],Clear
same,Solubility t0/AT,[4],Partially soluble
same,Solubility t0/AT,[4]; [5],partially soluble
same,Stability,[4],Yes
same,Stability,[4]; [5],particularly satisfactory
CCCCC(CC)COC(=O)C(C#N)=C(c1ccccc1)c1ccccc1 (stereo not shown) [Octocrylene],Solubility 0 D/AT,[3],Precipitate
same,Solubility t0/AT,[3],Soluble fraction
same,Stability,[3],No
CCCCCCCCCCC(CO)CCCCCCCC (stereo not shown) [Octyldodecanol],Solubility 1 D/AT,[4],Precipitate
same,Solubility t0/AT,[4],Insoluble
same,stability of diacetylresveratryl thioctate solubilized in a conventional solvent,[4]; general observation of the applicant,recrystallizes
same,Stability,[4],No
O=C(Oc1ccccc1)c1ccccc1 [Phenyl benzoate],Solubility 1 D/AT,[4],Clear
same,Solubility t0/AT,[4],Partially soluble
same,Solubility t0/AT,[4]; listed as phenyl benzoate,partially soluble
same,Stability,[4],Yes
CCCCCCCCOC(=O)c1ccc(C(=O)OCCCCCCCC)c(C(=O)OCCCCCCCC)c1 [Trioctyl trimellitate],Solubility 1 D/AT,[4],Clear
same,Solubility t0/AT,[4],Partially soluble
same,Solubility t0/AT,[4]; listed as trioctyl trimellitate,partially soluble
same,Stability,[4],Yes
Kaolin,olfactory stability t0,[1],Yes
